Where two headings read alike, the source gives them in different places.
What was measured:
[1] = biological target: T1, rat brain N-type calcium channel subunits (α1B+α2δ+β1b cDNA subunits) (Rattus norvegicus, UniProt Q02294); assay: N-type calcium channel block, whole cell patch clamp in HEK 293 cells; assay type: cell-based; conditions: holding potential −80 mV to +10 mV
T1 construct: expressed in transfected cells; host or cells: HEK 293
Protocol: N-type calcium channel blocking activity was assayed in human embryonic kidney cells, HEK 293, stably transfected with the rat brain N-type calcium channel subunits (α1B+α2δ+β1b cDNA subunits). Alternatively, N-type calcium channels (α1B+α2δ+β1b cDNA subunits), L-type channels (α1C+α2δ+β1b cDNA subunits) and P/Q-type channels (α1A+α2δ+β1b cDNA subunits) were transiently expressed in HEK 293 cells. Briefly, cells were cultured in Dulbecco's modified eagle medium (DMEM) supplemented with 10% fetal bovine serum, 200 U/ml penicillin and 0.2 mg/ml streptomycin at 37° C. with 5% CO2. At 85% confluency cells were split with 0.25% trypsin/1 mM EDTA and plated at 10% confluency on glass coverslips. At 12 hours the medium was replaced and the cells transiently transfected using a standard calcium phosphate protocol and the appropriate calcium channel cDNA's. Fresh DMEM was supplied and the cells transferred to 28° C./5% CO2. Cells were incubated for 1 to 2 days prior to whole cell recording.
Whole cell patch clamp experiments were performed using an Axopatch 200B amplifier (Axon Instruments, Burlingame, Calif.) linked to a personal computer equipped with pCLAMP software. The external and internal recording solutions contained, respectively, 5 mM BaCl2, 10 mM MgCl2, 10 mM HEPES, 40 mM TEACl, 10 mM glucose, 87.5 mM CsCl (pH 7.2) and 108 mM CsMS, 4 mM MgCl2, 9 mM EGTA, 9 mM HEPES (pH 7.2). Currents were typically elicited from a holding potential of −80 mV to +10 mV using Clampex software (Axon Instruments). Typically, currents were first elicited with low frequency stimulation (0.067 Hz) and allowed to stabilize prior to application of the compounds. The compounds were then applied during the low frequency pulse trains for two to three minutes to assess tonic block, and subsequently the pulse frequency was increased to 0.2 Hz to assess frequency dependent block. Data were analyzed using Clampfit (Axon Instruments) and SigmaPlot 4.0 (Jandel Scientific).

[2] = biological target: T2, human α1G T-type channels (Homo sapiens, UniProt O43497); assay: T-type calcium channel block, patch clamp in HEK cell lines; assay type: cell-based
T2 construct: expressed in transfected cells; host or cells: HEK cell lines
Protocol: Standard patch-clamp techniques were employed to identify blockers of T-type currents. Briefly, previously described HEK cell lines stably expressing human α1G T-type channels were used for all the recordings (passage #: 4-20, 37° C., 5% CO2). To obtain T-type currents, plastic dishes containing semi-confluent cells were positioned on the stage of a ZEISS AXIOVERT S100 microscope after replacing the culture medium with external solution (see below). Whole-cell patches were obtained using pipettes (borosilicate glass with filament, O.D.: 1.5 mm, I.D.: 0.86 mm, 10 cm length), fabricated on a SUTTER P-97 puller with resistance values of ˜5 MΩ (see below for internal solution).
T-type currents were reliably obtained by using two voltage protocols: • (1) “non-inactivating”, and (2) “inactivation”
In the non-inactivating protocol, the holding potential is set at −110 mV and with a pre-pulse at −100 mV for 1 second prior to the test pulse at −40 mV for 50 ms. In the inactivation protocol, the pre-pulse is at approximately −85 mV for 1 second, which inactivates about 15% of the T-type channels.
Test compounds were dissolved in external solution, 0.1-0.01% DMSO. After ˜10 min rest, they were applied by gravity close to the cell using a WPI microfil tubing. The “non-inactivated” pre-pulse was used to examine the resting block of a compound. The “inactivated” protocol was employed to study voltage-dependent block. However, the initial data shown below were mainly obtained using the non-inactivated protocol only. IC50 values are shown for various compounds of the invention in Table 5.

[3] = test system: Rings from Rat Mesenteric Artery maximally pre-contracted with PE; assay: Relaxation of pre-contracted rings from rat mesenteric artery; conditions: compound at 10^−5 M, rings maximally pre-contracted with PE at 10^−4 M, read-out: Mesenteric artery Max % relax
Protocol: Sprague-Dawley rats (350-400 g, Charles River Canada) were anaesthetized with sodium pentobarbital (60 mg/kg). The mesenteric arteries were removed and suspended in a tissue bath filled with Krebs-Henseleit solution aerated with 95% O2 and 5% CO2 at 37° C. The tissues were equilibrated for one hour prior to the construction of a concentration-response curve to phenylephrine (PE). Following recovery of the response to PE, a second curve to PE was constructed at 5 min after the addition of a calcium channel blocker (n=2-8, each from a separate rat) or the vehicle (50 μl of equimolar DMSO). After recovery, a third and fourth curve to PE were constructed after addition of a higher concentration of blocker or vehicle. The protocol was repeated using portal veins (n=4, each from a separate rat).

[4] = test system: Rings from Rat Portal Vein maximally pre-contracted with PE; assay: Relaxation of pre-contracted rings from rat portal vein; conditions: compound at 10^−5 M, rings maximally pre-contracted with PE at 10^−4 M, read-out: Portal vein Max % relax
[5] = Blood pressure reduction in SHR; assay type: in vivo
[6] = test system: T-type over L-type channels; conditions: cited from earlier work
[7] = low frequency stimulation 0.067 Hz (tonic block), read-out: IC50 @ 0.067 Hz
[8] = pulse frequency 0.2 Hz (frequency dependent block), read-out: IC50 @ 0.2 Hz
[9] = non-inactivating protocol, pre-pulse −100 mV (resting block), read-out: IC50 @ −100 mV
[10] = −80 mV (inactivation protocol, voltage-dependent block), read-out: IC50 @ −80 mV

T2 sequence (O43497 whole entry): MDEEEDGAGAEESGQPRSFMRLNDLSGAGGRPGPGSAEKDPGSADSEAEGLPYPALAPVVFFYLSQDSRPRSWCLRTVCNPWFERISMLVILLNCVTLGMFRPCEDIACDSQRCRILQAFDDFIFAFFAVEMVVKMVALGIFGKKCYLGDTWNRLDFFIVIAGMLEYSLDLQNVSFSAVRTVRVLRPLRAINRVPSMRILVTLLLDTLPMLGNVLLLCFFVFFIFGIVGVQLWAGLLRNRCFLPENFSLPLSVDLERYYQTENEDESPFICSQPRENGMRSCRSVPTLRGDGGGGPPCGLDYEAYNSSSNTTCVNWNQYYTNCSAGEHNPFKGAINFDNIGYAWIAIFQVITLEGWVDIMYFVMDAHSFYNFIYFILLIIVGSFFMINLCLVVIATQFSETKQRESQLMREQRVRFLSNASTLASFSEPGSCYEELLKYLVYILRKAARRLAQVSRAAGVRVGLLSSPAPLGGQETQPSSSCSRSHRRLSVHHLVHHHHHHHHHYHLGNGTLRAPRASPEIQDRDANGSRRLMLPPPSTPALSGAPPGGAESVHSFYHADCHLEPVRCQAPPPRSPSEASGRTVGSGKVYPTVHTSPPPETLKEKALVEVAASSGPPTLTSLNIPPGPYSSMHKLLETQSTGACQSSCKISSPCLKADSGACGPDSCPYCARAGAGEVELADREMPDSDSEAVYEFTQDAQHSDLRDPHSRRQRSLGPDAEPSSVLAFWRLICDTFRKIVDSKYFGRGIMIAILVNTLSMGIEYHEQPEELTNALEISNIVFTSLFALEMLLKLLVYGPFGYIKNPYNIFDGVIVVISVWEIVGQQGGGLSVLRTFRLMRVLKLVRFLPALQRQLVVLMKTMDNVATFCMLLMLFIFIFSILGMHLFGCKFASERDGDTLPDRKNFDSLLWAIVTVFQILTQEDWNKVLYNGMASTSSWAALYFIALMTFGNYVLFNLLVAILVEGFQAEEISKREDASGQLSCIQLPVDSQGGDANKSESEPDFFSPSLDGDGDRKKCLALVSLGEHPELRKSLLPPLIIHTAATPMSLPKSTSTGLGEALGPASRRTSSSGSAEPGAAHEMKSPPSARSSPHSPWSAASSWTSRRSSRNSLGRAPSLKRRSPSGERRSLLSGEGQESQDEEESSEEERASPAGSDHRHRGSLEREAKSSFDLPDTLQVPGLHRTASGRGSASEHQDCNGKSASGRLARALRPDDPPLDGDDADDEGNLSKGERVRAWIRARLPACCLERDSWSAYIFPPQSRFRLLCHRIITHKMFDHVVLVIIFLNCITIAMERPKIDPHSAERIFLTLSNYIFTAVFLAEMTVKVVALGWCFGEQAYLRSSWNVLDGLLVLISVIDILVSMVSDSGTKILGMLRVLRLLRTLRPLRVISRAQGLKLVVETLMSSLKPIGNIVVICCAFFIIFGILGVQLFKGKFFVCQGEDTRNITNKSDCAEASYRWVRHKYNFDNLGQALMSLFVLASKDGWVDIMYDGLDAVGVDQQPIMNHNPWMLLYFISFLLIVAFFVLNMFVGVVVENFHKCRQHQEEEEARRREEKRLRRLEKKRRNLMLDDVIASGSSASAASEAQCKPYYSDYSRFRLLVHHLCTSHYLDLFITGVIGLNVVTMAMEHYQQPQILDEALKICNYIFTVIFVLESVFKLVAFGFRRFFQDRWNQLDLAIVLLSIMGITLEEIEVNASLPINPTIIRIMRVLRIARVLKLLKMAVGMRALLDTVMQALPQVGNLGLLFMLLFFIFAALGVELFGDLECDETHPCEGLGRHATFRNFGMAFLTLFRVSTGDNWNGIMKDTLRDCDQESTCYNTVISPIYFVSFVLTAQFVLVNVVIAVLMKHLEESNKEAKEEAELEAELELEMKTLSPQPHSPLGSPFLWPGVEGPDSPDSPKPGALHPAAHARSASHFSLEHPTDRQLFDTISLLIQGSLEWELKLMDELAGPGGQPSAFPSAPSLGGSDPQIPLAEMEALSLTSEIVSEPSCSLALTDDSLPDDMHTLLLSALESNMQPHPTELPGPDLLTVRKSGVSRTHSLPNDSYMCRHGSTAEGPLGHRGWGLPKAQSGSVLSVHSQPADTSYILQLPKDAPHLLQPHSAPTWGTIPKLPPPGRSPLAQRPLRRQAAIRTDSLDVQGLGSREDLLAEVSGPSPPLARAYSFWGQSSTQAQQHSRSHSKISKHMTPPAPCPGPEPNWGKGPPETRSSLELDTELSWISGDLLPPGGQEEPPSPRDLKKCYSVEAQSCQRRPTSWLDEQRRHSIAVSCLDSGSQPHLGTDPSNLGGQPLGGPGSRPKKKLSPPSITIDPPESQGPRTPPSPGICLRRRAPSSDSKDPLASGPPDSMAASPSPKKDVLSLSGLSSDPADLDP
T1 sequence (Q02294 whole entry): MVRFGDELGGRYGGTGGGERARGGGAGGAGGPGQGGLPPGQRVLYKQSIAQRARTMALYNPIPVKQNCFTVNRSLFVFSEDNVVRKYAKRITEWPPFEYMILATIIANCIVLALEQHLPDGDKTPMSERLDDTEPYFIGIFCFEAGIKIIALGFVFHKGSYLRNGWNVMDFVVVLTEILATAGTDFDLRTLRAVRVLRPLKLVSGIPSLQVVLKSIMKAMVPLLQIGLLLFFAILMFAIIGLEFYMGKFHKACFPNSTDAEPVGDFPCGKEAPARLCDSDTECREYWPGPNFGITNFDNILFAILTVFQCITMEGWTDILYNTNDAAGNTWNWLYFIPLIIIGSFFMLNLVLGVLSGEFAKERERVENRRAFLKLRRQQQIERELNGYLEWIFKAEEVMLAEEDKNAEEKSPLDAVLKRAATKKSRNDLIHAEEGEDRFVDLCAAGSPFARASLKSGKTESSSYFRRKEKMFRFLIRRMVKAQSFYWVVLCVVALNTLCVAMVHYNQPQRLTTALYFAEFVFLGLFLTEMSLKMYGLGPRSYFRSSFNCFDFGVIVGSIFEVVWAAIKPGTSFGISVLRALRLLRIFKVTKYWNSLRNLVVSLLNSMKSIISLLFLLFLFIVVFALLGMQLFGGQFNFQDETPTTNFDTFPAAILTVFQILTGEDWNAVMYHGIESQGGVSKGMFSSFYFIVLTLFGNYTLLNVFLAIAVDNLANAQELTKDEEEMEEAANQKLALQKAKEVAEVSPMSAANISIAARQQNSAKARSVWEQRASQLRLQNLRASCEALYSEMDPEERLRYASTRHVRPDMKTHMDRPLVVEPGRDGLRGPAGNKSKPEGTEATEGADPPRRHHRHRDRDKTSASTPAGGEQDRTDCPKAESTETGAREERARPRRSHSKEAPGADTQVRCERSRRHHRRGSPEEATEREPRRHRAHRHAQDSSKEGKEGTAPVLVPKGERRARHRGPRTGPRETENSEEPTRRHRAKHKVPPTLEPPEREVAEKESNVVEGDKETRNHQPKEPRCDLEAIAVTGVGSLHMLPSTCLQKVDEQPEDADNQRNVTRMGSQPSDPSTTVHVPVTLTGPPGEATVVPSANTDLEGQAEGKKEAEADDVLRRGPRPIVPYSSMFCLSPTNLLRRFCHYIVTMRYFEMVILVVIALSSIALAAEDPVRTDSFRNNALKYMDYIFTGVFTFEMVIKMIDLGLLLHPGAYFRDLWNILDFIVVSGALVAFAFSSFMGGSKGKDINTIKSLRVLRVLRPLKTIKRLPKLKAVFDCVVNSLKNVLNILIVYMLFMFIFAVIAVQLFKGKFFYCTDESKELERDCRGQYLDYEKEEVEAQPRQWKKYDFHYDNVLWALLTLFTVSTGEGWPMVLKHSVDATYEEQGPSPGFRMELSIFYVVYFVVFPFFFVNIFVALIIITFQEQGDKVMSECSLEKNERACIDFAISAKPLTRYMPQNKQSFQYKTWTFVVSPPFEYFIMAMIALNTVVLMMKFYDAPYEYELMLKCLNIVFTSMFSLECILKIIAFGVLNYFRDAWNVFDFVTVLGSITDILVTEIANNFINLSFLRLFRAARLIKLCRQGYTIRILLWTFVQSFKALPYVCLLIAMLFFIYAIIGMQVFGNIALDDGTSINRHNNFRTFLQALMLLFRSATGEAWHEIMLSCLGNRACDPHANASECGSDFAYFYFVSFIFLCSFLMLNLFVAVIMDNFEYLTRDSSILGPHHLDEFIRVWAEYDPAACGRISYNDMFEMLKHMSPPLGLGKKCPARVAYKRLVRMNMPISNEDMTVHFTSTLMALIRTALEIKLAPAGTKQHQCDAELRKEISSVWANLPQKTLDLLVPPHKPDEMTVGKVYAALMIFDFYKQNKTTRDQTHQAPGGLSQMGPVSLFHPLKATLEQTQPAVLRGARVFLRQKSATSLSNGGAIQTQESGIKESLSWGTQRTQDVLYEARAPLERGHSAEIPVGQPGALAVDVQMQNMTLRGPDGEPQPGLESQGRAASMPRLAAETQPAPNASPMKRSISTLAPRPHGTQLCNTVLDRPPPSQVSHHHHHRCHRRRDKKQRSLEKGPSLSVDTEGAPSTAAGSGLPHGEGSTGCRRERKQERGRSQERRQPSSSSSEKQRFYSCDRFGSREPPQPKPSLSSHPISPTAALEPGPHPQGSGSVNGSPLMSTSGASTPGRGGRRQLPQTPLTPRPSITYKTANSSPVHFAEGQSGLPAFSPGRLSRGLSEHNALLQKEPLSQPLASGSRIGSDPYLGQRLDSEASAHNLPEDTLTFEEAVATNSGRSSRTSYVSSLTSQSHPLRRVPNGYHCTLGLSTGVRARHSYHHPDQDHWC

SMILES	IC50 [1, 7]	IC50 [1, 8]	IC50 [2, 9]	IC50 [2, 10]	Emax at 10 µM [3]	Emax at 10 µM [4]	BP SHR at 4 hrs % reduction [5]	selective for T-type over L-type channels [6]
CC(C)(C)c1ccc(C(=O)NC/C=C\CNC(=O)CCCCC(c2ccc(F)cc2)c2ccc(F)cc2)cc1 [Compound P4, N-{(Z)-4-[6,6-Bis-(4-fluoro-phenyl)-hexanoylamino]-but-2-enyl}-4-tert-butyl-benzamide]	86 nM	59 nM	38 nM	12 nM	8%	–	–	–
COc1c(C(C)(C)C)cc(C(=O)NCC#CCNC(=O)CCCCC(c2ccc(F)cc2)c2ccc(F)cc2)cc1C(C)(C)C [Compound P23, N-{4-[6,6-Bis-(4-fluoro-phenyl)-hexanoylamino]-but-2-ynyl}-3,5-di-tert-butyl-4-methoxy-benzamide]	–	–	–	–	0%	–	–	–
CC(C)(C)c1ccc(C(=O)NCC#CCNC(=O)CCCCC(c2ccc(F)cc2)c2ccc(F)cc2)cc1 [Compound P24, N-{4-[6,6-Bis-(4-fluoro-phenyl)-hexanoylamino]-but-2-ynyl}-4-tert-butyl-benzamide]	–	–	–	–	0%	–	–	–
COc1ccc(C(=O)NCC#CCNC(=O)CCCCC(c2ccc(F)cc2)c2ccc(F)cc2)cc1 [Compound P27, N-{4-[6,6-Bis-(4-fluoro-phenyl)-hexanoylamino]-but-2-ynyl}-4-methoxy-benzamide]	–	–	–	–	41%	51%	–	–
O=C(CC(c1ccccc1)c1ccccc1)NCC#CCN(Cc1ccccn1)Cc1ccccn1 [Compound P32, N-[4-(Bis-pyridin-2-ylmethyl-amino)-but-2-ynyl]-3,3-diphenyl-propionamide]	2200 nM	568 nM	1800 nM	1100 nM	50%	49%	–	–
CC(C)c1ccc(C(=O)NCCCCNC(=O)CCCCC(c2ccc(F)cc2)c2ccc(F)cc2)cc1 [Compound P37, N-{4-[6,6-Bis-(4-fluoro-phenyl)-hexanoylamino]-butyl}-4-isopropyl-benzamide]	310 nM	300 nM	31 nM	8 nM	42%	51%	–	–
COCC(=O)O[C@]1(CCN(C)CCCc2nc3ccccc3[nH]2)CCc2cc(F)ccc2[C@@H]1C(C)C [Mibefradil]	–	–	–	–	–	–	–	10-30 fold

Second part, led by results:

IC50 [1, 7]	IC50 [1, 8]	IC50 [2, 9]	IC50 [2, 10]	SMILES	Emax at 10 µM [3]	Emax at 10 µM [4]	BP SHR at 4 hrs % reduction [5]	selective for T-type over L-type channels [6]
74 nM	46 nM	27 nM	7 nM	O=C(CCCCC(c1ccc(F)cc1)c1ccc(F)cc1)NC/C=C\CNC(=O)c1cc(C(F)(F)F)cc(C(F)(F)F)c1 [Compound P5, N-{(Z)-4-[6,6-Bis-(4-fluoro-phenyl)-hexanoylamino]-but-2-enyl}-3,5-bis-trifluoromethyl-benzamide]	10%	–	–	–
58 nM	27 nM	128 nM	67 nM	O=C(CCCCC(c1ccc(F)cc1)c1ccc(F)cc1)NC/C=C\CNC(=O)COc1ccc(Cl)cc1 [Compound P6, 6,6-Bis-(4-fluoro-phenyl)-hexanoic acid{(Z)-4-[2-(4-chloro-phenoxy)-acetylamino]-but-2-enyl}-amide]	35%	28%	–	–
182 nM	112 nM	20 nM	6 nM	O=C(CCCCC(c1ccc(F)cc1)c1ccc(F)cc1)NC/C=C\CNC(=O)c1ccc(F)cc1 [Compound P10, N-{(Z)-4-[6,6-Bis-(4-fluoro-phenyl)-hexanoylamino]-but-2-enyl}-4-fluoro-benzamide]	35%	38%	–	–
19 nM	127 nM	54 nM	21 nM	O=C(CCCCC(c1ccc(F)cc1)c1ccc(F)cc1)NC/C=C/CNC(=O)c1cc(C(F)(F)F)cc(C(F)(F)F)c1 [Compound P15, N-{(E)-4-[6,6-Bis-(4-fluoro-phenyl)-hexanoylamino]-but-2-enyl}-3,5-bis-trifluoromethyl-benzamide]	9%	–	–	–
144 nM	40 nM	336 nM	202 nM	Cc1ccc(C(=O)NCC#CCNC(=O)CCCCC(c2ccc(F)cc2)c2ccc(F)cc2)cc1 [Compound P26, N-{4-[6,6-Bis-(4-fluoro-phenyl)-hexanoylamino]-but-2-ynyl}-4-methyl-benzamide]	40%	34%	–	–
360 nM	360 nM	72 nM	29 nM	O=C(CCCCC(c1ccc(F)cc1)c1ccc(F)cc1)NCC#CCNC(=O)c1ccc(Cl)cc1 [Compound P28, N-{4-[6,6-Bis-(4-fluoro-phenyl)-hexanoylamino]-but-2-ynyl}-4-chloro-benzamide]	61%	25%	13 n = 4%	–
290 nM	290 nM	696 nM	101 nM	O=C(CCCCC(c1ccc(F)cc1)c1ccc(F)cc1)NCC#CCNC(=O)c1ccc(F)cc1 [Compound P29, N-{4-[6,6-Bis-(4-fluoro-phenyl)-hexanoylamino]-but-2-ynyl}-4-fluoro-benzamide]	63%	51%	–	–

Source: patent US7511077B2, “Diamine calcium channel blockers” (Neuromed Pharmaceuticals Ltd., priority 2005, dated 2009)
